Measurements published in US20220401514A1, “ANTIMICROBIAL, BACTERIOPHAGE-DERIVED POLYPEPTIDES AND THEIR USE AGAINST GRAM-NEGATIVE AND ACID-FAST BACTERIA” (CONTRAFECT CORPORATION, priority 2019, published 2022).

Assays:
[1] = system: P. aeruginosa strain CFS-1292; assay: Checkerboard assay (FICI) with antibiotics, P. aeruginosa; assay type: cell-based, Pseudomonas aeruginosa; conditions: for Antibiotic FIC: P. aeruginosa CFS-1292; for Antibiotic MIC in checkerboard: P. aeruginosa CFS-1292, CAA + […] human serum
Method: Any known method to assess MIC may be used.
Checkerboards are constructed by first preparing columns of e.g., a 96-well polypropylene microtiter plate, wherein each well has the same amount of antibiotic diluted 2-fold along the horizontal axis. […] Bacteria are added to the drug combinations at concentrations of 1×10^5 […] in CAA, for example, with or without human serum or pulmonary surfactant. […] Summation fractional inhibitory concentrations (ΣFICs) are calculated for each drug and the minimum ΣFIC value (ΣFICmin) is used to determine the effect of the Chp peptide/antibiotic combination.
(§1) Checkerboard assays. […] Checkerboards were constructed by first preparing columns of a 96-well polypropylene microtiter plate, in which each well had the same amount of antibiotic diluted 2-fold along the horizontal axis. […] Summation fractional inhibitory concentration index (FICIs) were calculated for each drug and the minimum FICI was used to determine synergy. FICIs were calculated as follows: FICI=FIC A+FIC B, where FIC A is the MIC of each antibiotic in the combination/MIC of the each antibiotic alone, and FIC B is the MIC of each Chp peptide in the combination/MIC of each Chp peptide alone. The combination is considered synergistic when the FICI is ≤0.5, strongly additive when the FICI is >0.5 to <1, additive with the FICI is 1-<2, and antagonistic when the FICI is ≥2.
In the checkerboard assay, fractional inhibitory concentration index (FICI) values are calculated.

[2] = system: Acinetobacter baumannii strain 30; assay: Checkerboard assay (FICI) with antibiotics, A. baumannii; assay type: cell-based; conditions: checkerboard
Method: as §1
The results are shown below in Tables 22-27.

[3] = system: Klebsiella pneumoniae strain 1139; assay: Checkerboard assay (FICI) with antibiotics, K. pneumoniae; assay type: cell-based
Method: as §1

[4] = checkerboard, in combination with Chp4-M1
[5] = checkerboard, in combination with Chp6-M1

Compound	Antibiotic FIC ([1]; combined with Chp2-M1)	Antibiotic MIC in checkerboard ([1]; combined with Chp2-M1)	Antibiotic FIC ([1]; combined with Chp2)	Antibiotic MIC in checkerboard ([1]; combined with Chp2)	Antibiotic FIC ([1]; combined with Chp4-M1)	Antibiotic FIC ([1]; combined with Chp6-M1)	Antibiotic MIC in checkerboard ([1]; combined with Chp6-M1)	Antibiotic FIC ([1]; combined with Unp2-M1)	Antibiotic FIC ([2]; in combination with Chp2)	Antibiotic FIC ([2]; in combination with Chp2-M1)	Antibiotic FIC ([2]; in combination with Chp4-M1)	Antibiotic FIC ([2]; in combination with Chp6-M1)	Antibiotic FIC ([2]; in combination with Chp10-M1)	Antibiotic FIC ([2]; in combination with Unp2-M1)	Antibiotic MIC ([2]; in combination with Chp2)	Antibiotic MIC ([2]; in combination with Chp2-M1)	Antibiotic MIC ([2]; in combination with Chp4-M1)	Antibiotic MIC ([2]; in combination with Chp6-M1)	Antibiotic MIC ([2]; in combination with Chp10-M1)	Antibiotic MIC ([2]; in combination with Unp2-M1)	also measured
NCC[C@H](O)C(=O)N[C@@H]1C[C@H](N)[C@@H](O[C@H]2O[C@H](CN)[C@@H](O)[C@H](O)[C@H]2O)[C@H](O)[C@H]1O[C@H]1O[C@H](CO)[C@@H](O)[C@H](N)[C@H]1O [Amikacin]	0.25	0.5 µg/mL	0.25	0.5 µg/mL	0.0625	0.25	0.5 µg/mL	0.25	0.25	0.5	0.5	0.5	0.5	0.5	–	–	–	–	–	–	Antibiotic FIC ([1]; combined with Chp10-M1): 0.125; Antibiotic MIC in checkerboard ([1]; combined with Chp10-M1): 0.25 µg/mL; Antibiotic MIC in checkerboard ([1]; combined with Unp2-M1): 0.5 µg/mL
CC[C@H]1OC(=O)[C@H](C)[C@@H](O[C@H]2C[C@@](C)(OC)[C@@H](O)[C@H](C)O2)[C@H](C)[C@@H](O[C@@H]2O[C@H](C)C[C@H](N(C)C)[C@H]2O)[C@](C)(O)C[C@@H](C)CN(C)[C@H](C)[C@@H](O)[C@]1(C)O [Azithromycin]	–	–	0.25	–	0.25	0.25	–	–	0.5	0.25	0.25	0.25	0.5	0.5	0.5 µg/mL	0.5 µg/mL	0.5 µg/mL	0.5 µg/mL	0.5 µg/mL	0.5 µg/mL	Antibiotic FIC [3, 4]: 0.25; Antibiotic MIC [3, 4]: 1 µg/mL; Antibiotic FIC [3, 5]: 0.5; Antibiotic MIC [3, 5]: 1 µg/mL; Antibiotic MIC ([3]; checkerboard, in combination with Chp10-M1): 1 µg/mL; Antibiotic MIC ([3]; checkerboard, in combination with Unp2-M1): 1 µg/mL; Antibiotic MIC in checkerboard ([3]; combined with Chp2): 1 µg/mL; Antibiotic FIC ([3]; combined with Chp2-M1): 0.25; Antibiotic MIC in checkerboard ([3]; combined with Chp2-M1): 1 µg/mL
CCN1CCN(C(=O)N[C@@H](C(=O)N[C@@H]2C(=O)N3[C@@H]2SC(C)(C)[C@@H]3C(=O)O)c2ccccc2)C(=O)C1=O [Piperacillin]	0.125	1 µg/mL	0.5	4 µg/mL	0.5	0.25	2 µg/mL	0.25	0.25	0.25	0.25	0.5	0.25	0.25	8 µg/mL	8 µg/mL	8 µg/mL	16 µg/mL	4 µg/mL	8 µg/mL	Antibiotic MIC in checkerboard ([1]; combined with Chp4-M1): 8 µg/mL; Antibiotic FIC ([1]; combined with Chp10-M1): 0.25; Antibiotic MIC in checkerboard ([1]; combined with Chp10-M1): 2 µg/mL; Antibiotic MIC in checkerboard ([1]; combined with Unp2-M1): 2 µg/mL
Gentamicin	–	–	0.5	–	–	–	–	0.25	0.25	0.5	0.5	0.5	0.01562	0.5	0.03125 µg/mL	0.03125 µg/mL	0.03125 µg/mL	0.03125 µg/mL	0.0009766 µg/mL	0.03125 µg/mL	–
